Reference: US9133207B2, “Tetrandrine derivatives with substituted 5-carbon, preparation method and use thereof” (Hangzhou Bensheng Pharmaceutical Co., Ltd., priority 2011, dated 2015)
In brackets after ≈: the same amount, converted by molar mass.

Tests used:
[1] = system: NB4 (acute promyelocytic leukemia, AML); assay: Leukemia cell growth inhibition, MTT, 72 h (Example 5); type: cell-based, human; settings: Homo sapiens; 72 h, MTT
Method in brief: (§1)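 Growth inhibition by tetrandrine derivatives, dosed at several concentrations, was assessed via MTT after a 72-hour culture at 37° C.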

[2] = system: Jurkat (acute lymphoblastic leukemia, ALL); assay: as above; type: cell-based, human; settings: for IC50 / IC90: Homo sapiens, Jurkat, 72 h, MTT; for anti-Jurkat activity increase over tetrandrine: compared with tetrandrine
Method in brief: as §1

[3] = system: K562/adr (drug-resistant, chronic myeloid leukemia, CML); assay: as above; type: cell-based, human; settings: Homo sapiens, K562/Adr; 72 h, MTT
Method in brief: as §1

[4] = system: Kasumi-1 (acute myeloid leukemia M2 type, AML-M2); assay: as above; type: cell-based, human; settings: Homo sapiens, Kasumi 1
Method in brief: as §1

[5] = system: H9 (acute lymphoblastic leukemia, ALL); assay: as above; type: cell-based, human; settings: Homo sapiens; 72 h, MTT
Method in brief: as §1

[6] = system: CaES-17 (esophageal cancer cell); assay: Solid tumor cell growth inhibition, MTT, 72 h (Example 7); type: cell-based, human; settings: Homo sapiens, CaEs17; 72 h, MTT, CAES-17
Method in brief: (§2)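 A 72 h MTT assay: cells (4000/well, 24 h pre-culture in DMEM high glucose with 10% FBS at 37 °C, 5% CO2) were treated with graded concentrations of derivatives, and viability was calculated as % of untreated control.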

[7] = system: PANC-1 (pancreatic cancer); assay: as above; type: cell-based, human; settings: Homo sapiens; 72 h, MTT, PANC-1
Method in brief: as §2

PC-3 (prostate cancer) = assay: as above; type: cell-based, human; settings: Homo sapiens; 72 h, MTT, PC-3
Method in brief: as §2

[8] = system: Hep-2 (laryngeal carcinoma); assay: as above; type: cell-based, human; settings: Homo sapiens; 72 h, MTT, Hep 2
Method in brief: as §2

MG63 (osteosarcoma) = assay: as above; type: cell-based, human; settings: Homo sapiens; 72 h, MTT, MG-63
Method in brief: as §2

[9] = system: U87 MG (malignant glioma cell); assay: as above; type: cell-based; settings: Homo sapiens, U-87 MG
Method in brief: as §2

[10] = system: SK-OV-3 (ovarian cancer cell); assay: as above; type: cell-based; settings: Homo sapiens
Method in brief: as §2

A549 (human lung cancer) = assay: as above; type: cell-based; settings: Homo sapiens; 72 h, MTT, A549
Method in brief: as §2

[11] = system: Huh7 (human liver cancer cell); assay: as above; type: cell-based; settings: Homo sapiens; 72 h, MTT, Huh-7
Method in brief: as §2

[12] = system: Hela (human cervical cancer cell); assay: as above; type: cell-based; settings: Homo sapiens; 72 h, MTT, Hela
Method in brief: as §2

[13] = system: CNE (nasopharyngeal carcinoma cell); assay: as above; type: cell-based; settings: Homo sapiens
Method in brief: as §2

[14] = system: Becap37 (human breast cancer cell); assay: as above; type: cell-based; settings: Homo sapiens; 72 h, MTT, Becap-37
Method in brief: as §2

[15] = system: RKO (human colon adenocarcinoma cell); assay: as above; type: cell-based; settings: Homo sapiens; 72 h, MTT, RKO
Method in brief: as §2

[16] = system: MGC 803 (human gastric cancer cell); assay: as above; type: cell-based; settings: Homo sapiens
Method in brief: as §2

[17] = system: RPMI8226 (multiple myeloma); assay: Multiple myeloma cell growth inhibition, MTT, 72 h (Example 6); type: cell-based, human; settings: Homo sapiens, RPMI-8226; 72 h, MTT, RPMI8226
Method in brief: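 RPMI8226 cells (6000 per well) in RPMI 1640 with 10% FBS were exposed to a range of tetrandrine derivative concentrations for 72 h at 37 °C under 5% CO2. Viable cell concentration was then measured by MTT.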

Compound: COc1ccc2cc1Oc1ccc(cc1)C[C@H]1c3cc(c(OC)cc3CCN1C)Oc1c(OC)c(OC)c(CN3CCCC(C)C3)c3c1[C@H](C2)N(C)CC3 (some centres unmarked) [BS-TE-346]
- IC50 [1]: 0.54 µg/mL (≈ 0.736 µM)
- IC90 [1]: 1.5 µg/mL (≈ 2.04 µM)
- IC50 [2]: 0.58 µg/mL (≈ 0.79 µM)
- IC90 [2]: 3.79 µg/mL (≈ 5.16 µM)
- anti-Jurkat activity increase over tetrandrine [2]: ~4 fold
- IC50 [3]: 0.31 µg/mL (≈ 0.422 µM)
- IC90 [3]: 2.05 µg/mL (≈ 2.79 µM)
- IC50 [4]: 0.5 µg/mL (≈ 0.681 µM)
- IC90 [4]: 2.68 µg/mL (≈ 3.65 µM)
- IC50 [5]: 1.01 µg/mL (≈ 1.38 µM)
- IC90 [5]: 2.3 µg/mL (≈ 3.13 µM)
- IC50 [6]: 1.29 µg/mL (≈ 1.76 µM)
- IC90 [6]: 7.23 µg/mL (≈ 9.85 µM)
- IC50 [7]: 2.31 µg/mL (≈ 3.15 µM)
- IC90 [7]: 8.26 µg/mL (≈ 11.3 µM)
- IC50 (PC-3 (prostate cancer)): 2.92 µg/mL (≈ 3.98 µM)
- IC90 (PC-3 (prostate cancer)): 4.9 µg/mL (≈ 6.68 µM)
- IC50 [8]: 1.79 µg/mL (≈ 2.44 µM)
- IC90 [8]: 6.83 µg/mL (≈ 9.31 µM)
- IC50 (MG63 (osteosarcoma)): 0.8 µg/mL (≈ 1.09 µM)
- IC90 (MG63 (osteosarcoma)): 1.5 µg/mL (≈ 2.04 µM)
- IC50 [9]: 0.19 µg/mL (≈ 0.259 µM)
- IC90 [9]: 0.57 µg/mL (≈ 0.777 µM)
- IC50 [10]: 3.9 µg/mL (≈ 5.31 µM)
- IC90 [10]: > 16 µg/mL
- IC50 (A549 (human lung cancer)): 2.5 µg/mL (≈ 3.41 µM)
- IC90 (A549 (human lung cancer)): 8 µg/mL (≈ 10.9 µM)
- IC50 [11]: 1.63 µg/mL (≈ 2.22 µM)
- IC90 [11]: 2.49 µg/mL (≈ 3.39 µM)
- IC50 [12]: 1.83 µg/mL (≈ 2.49 µM)
- IC90 [12]: 5 µg/mL (≈ 6.81 µM)
- IC50 [13]: 2.5 µg/mL (≈ 3.41 µM)
- IC90 [13]: 5.4 µg/mL (≈ 7.36 µM)
- IC50 [14]: 0.8 µg/mL (≈ 1.09 µM)
- IC90 [14]: 2.3 µg/mL (≈ 3.13 µM)
- IC50 [15]: 0.73 µg/mL (≈ 0.995 µM)
- IC90 [15]: 1.9 µg/mL (≈ 2.59 µM)
- IC50 [16]: 0.9 µg/mL (≈ 1.23 µM)
- IC90 [16]: 4.98 µg/mL (≈ 6.79 µM)
- IC50 [17]: 0.02 µg/mL (≈ 0.0272 µM)
- IC90 [17]: 0.06 µg/mL (≈ 0.0817 µM)

Compound: COc1ccc2cc1Oc1ccc(cc1)C[C@H]1c3cc(c(OC)cc3CCN1C)Oc1c(OC)c(OC)c(CNCc3ccco3)c3c1[C@H](C2)N(C)CC3 [BS-TE-350]
- IC50 [1]: 0.3 µg/mL (≈ 0.41 µM)
- IC90 [1]: 1 µg/mL (≈ 1.37 µM)
- IC50 [2]: 0.59 µg/mL (≈ 0.806 µM)
- IC90 [2]: 2.97 µg/mL (≈ 4.06 µM)
- anti-Jurkat activity increase over tetrandrine [2]: ~4 fold
- IC50 [3]: 0.33 µg/mL (≈ 0.451 µM)
- IC90 [3]: 1.6 µg/mL (≈ 2.19 µM)
- IC50 [4]: 0.54 µg/mL (≈ 0.738 µM)
- IC90 [4]: 2.52 µg/mL (≈ 3.44 µM)
- IC50 [5]: 1.11 µg/mL (≈ 1.52 µM)
- IC90 [5]: 1.92 µg/mL (≈ 2.62 µM)
- IC50 [6]: 1.03 µg/mL (≈ 1.41 µM)
- IC90 [6]: 5.13 µg/mL (≈ 7.01 µM)
- IC50 [7]: 1.83 µg/mL (≈ 2.5 µM)
- IC90 [7]: 6.04 µg/mL (≈ 8.25 µM)
- IC50 (PC-3 (prostate cancer)): 1.87 µg/mL (≈ 2.56 µM)
- IC90 (PC-3 (prostate cancer)): 2.83 µg/mL (≈ 3.87 µM)
- IC50 [8]: 1.51 µg/mL (≈ 2.06 µM)
- IC90 [8]: 4.67 µg/mL (≈ 6.38 µM)
- IC50 (MG63 (osteosarcoma)): 0.8 µg/mL (≈ 1.09 µM)
- IC90 (MG63 (osteosarcoma)): 1.6 µg/mL (≈ 2.19 µM)
- IC50 [9]: 0.3 µg/mL (≈ 0.41 µM)
- IC90 [9]: 1.13 µg/mL (≈ 1.54 µM)
- IC50 [10]: 1.8 µg/mL (≈ 2.46 µM)
- IC90 [10]: 12.9 µg/mL (≈ 17.6 µM)
- IC50 (A549 (human lung cancer)): 3 µg/mL (≈ 4.1 µM)
- IC90 (A549 (human lung cancer)): 11 µg/mL (≈ 15 µM)
- IC50 [11]: 1.82 µg/mL (≈ 2.49 µM)
- IC90 [11]: 2.43 µg/mL (≈ 3.32 µM)
- IC50 [12]: 0.95 µg/mL (≈ 1.3 µM)
- IC90 [12]: 2.5 µg/mL (≈ 3.42 µM)
- IC50 [13]: 1.3 µg/mL (≈ 1.78 µM)
- IC90 [13]: 3.3 µg/mL (≈ 4.51 µM)
- IC50 [14]: 0.9 µg/mL (≈ 1.23 µM)
- IC90 [14]: 3.6 µg/mL (≈ 4.92 µM)
- IC50 [15]: 0.45 µg/mL (≈ 0.615 µM)
- IC90 [15]: 0.92 µg/mL (≈ 1.26 µM)
- IC50 [16]: 0.89 µg/mL (≈ 1.22 µM)
- IC90 [16]: 4.11 µg/mL (≈ 5.62 µM)
- IC50 [17]: 0.05 µg/mL (≈ 0.0683 µM)
- IC90 [17]: 1.51 µg/mL (≈ 2.06 µM)

Compound: COc1ccc2cc1Oc1ccc(cc1)C[C@H]1c3cc(c(OC)cc3CCN1C)Oc1c(OC)c(OC)c(CN3CCCC(CO)C3)c3c1[C@H](C2)N(C)CC3 (some centres unmarked) [BS-TE-351]
- IC50 [1]: 0.7 µg/mL (≈ 0.933 µM)
- IC90 [1]: 1.9 µg/mL (≈ 2.53 µM)
- IC50 [2]: 1 µg/mL (≈ 1.33 µM)
- IC90 [2]: 5.02 µg/mL (≈ 6.69 µM)
- IC50 [3]: 0.82 µg/mL (≈ 1.09 µM)
- IC90 [3]: 3.11 µg/mL (≈ 4.15 µM)
- IC50 [4]: 0.76 µg/mL (≈ 1.01 µM)
- IC90 [4]: 3.59 µg/mL (≈ 4.79 µM)
- IC50 [5]: 0.72 µg/mL (≈ 0.96 µM)
- IC90 [5]: 1.58 µg/mL (≈ 2.11 µM)
- IC50 [6]: 1.38 µg/mL (≈ 1.84 µM)
- IC90 [6]: 8.19 µg/mL (≈ 10.9 µM)
- IC50 [7]: 1.87 µg/mL (≈ 2.49 µM)
- IC90 [7]: 7.79 µg/mL (≈ 10.4 µM)
- IC50 (PC-3 (prostate cancer)): 1.82 µg/mL (≈ 2.43 µM)
- IC90 (PC-3 (prostate cancer)): 3.32 µg/mL (≈ 4.43 µM)
- IC50 [8]: 3.07 µg/mL (≈ 4.09 µM)
- IC90 [8]: 8.13 µg/mL (≈ 10.8 µM)
- IC50 (MG63 (osteosarcoma)): 1.2 µg/mL (≈ 1.6 µM)
- IC90 (MG63 (osteosarcoma)): 2 µg/mL (≈ 2.67 µM)
- IC50 [9]: 0.28 µg/mL (≈ 0.373 µM)
- IC90 [9]: 0.67 µg/mL (≈ 0.893 µM)
- IC50 [10]: 3.5 µg/mL (≈ 4.67 µM)
- IC90 [10]: > 16 µg/mL
- IC50 (A549 (human lung cancer)): 3.9 µg/mL (≈ 5.2 µM)
- IC90 (A549 (human lung cancer)): 16 µg/mL (≈ 21.3 µM)
- IC50 [11]: 1.3 µg/mL (≈ 1.73 µM)
- IC90 [11]: 2.41 µg/mL (≈ 3.21 µM)
- IC50 [12]: 1.25 µg/mL (≈ 1.67 µM)
- IC90 [12]: 3.61 µg/mL (≈ 4.81 µM)
- IC50 [13]: 1.32 µg/mL (≈ 1.76 µM)
- IC90 [13]: 3.84 µg/mL (≈ 5.12 µM)
- IC50 [14]: 1.08 µg/mL (≈ 1.44 µM)
- IC90 [14]: 4.5 µg/mL (≈ 6 µM)
- IC50 [15]: 0.45 µg/mL (≈ 0.6 µM)
- IC90 [15]: 1.25 µg/mL (≈ 1.67 µM)
- IC50 [16]: 1.49 µg/mL (≈ 1.99 µM)
- IC90 [16]: 7.42 µg/mL (≈ 9.89 µM)
- IC50 [17]: 0.09 µg/mL (≈ 0.12 µM)
- IC90 [17]: 2.43 µg/mL (≈ 3.24 µM)
